Measured values from PMC11435183, “Enzymatic Characterization of SpPAL Genes in S. polyrhiza and Overexpression of the SpPAL3” (Plants, 2024).

What was measured:
Format in all cases: biochemical, Spirodela polyrhiza
SpPAL2 [1] = system: T1, SpPAL2; test: Michaelis-Menten kinetics, deamination to trans-cinnamic acid; conditions: 0-20 mM L-Phe; pH and temperature of the kinetic runs not clearly stated (activity assay: 100 mM Tris-HCl pH 8.0, 50 °C)
T1 construct: full-length ORF (2277 bp); about 83 kDa; homotetramer only predicted
Text: Michaelis-Menten kinetics, deamination to trans-cinnamic acid on SpPAL2

SpPAL3 = system: T2, SpPAL3; test: as above; conditions: 0-20 mM L-Phe; pH and temperature of the kinetic runs not clearly stated (activity assay: 100 mM Tris-HCl pH 8.0, 50 °C)
T2 construct: about 79 kDa; homotetramer only predicted
Text: Michaelis-Menten kinetics, deamination to trans-cinnamic acid on SpPAL3

SpPAL1 [2] = system: T3, SpPAL1; test: as above; conditions: 0-20 mM L-Phe; pH and temperature of the kinetic runs not clearly stated (activity assay: 100 mM Tris-HCl pH 8.0, 50 °C)
T3 construct: full-length ORF (2172 bp); about 78 kDa; homotetramer only predicted
Text: Michaelis-Menten kinetics, deamination to trans-cinnamic acid on SpPAL1

SpPAL1 [3] = system: T3, SpPAL1; test: Michaelis-Menten kinetics, deamination to p-coumaric acid; conditions: 0.1-2.5 mM L-Tyr; pH and temperature of the kinetic runs not clearly stated (activity assay: 100 mM Tris-HCl pH 8.0, 50 °C)
Text: Michaelis-Menten kinetics, deamination to p-coumaric acid on SpPAL1

SpPAL2 [4] = system: T1, SpPAL2; test: as above; conditions: 0.1-2.5 mM L-Tyr; pH and temperature of the kinetic runs not clearly stated (activity assay: 100 mM Tris-HCl pH 8.0, 50 °C); Km lies above the tested concentration range
Text: Michaelis-Menten kinetics, deamination to p-coumaric acid on SpPAL2

N[C@@H](Cc1ccccc1)C(=O)O [L-Phe]
Km (SpPAL2 [1]): 345 µM
Km (SpPAL3): 632 µM
Km (SpPAL1 [2]): 252 µM

N[C@@H](Cc1ccc(O)cc1)C(=O)O [L-Tyr]
Km (SpPAL1 [3]): 1290 µM
Km (SpPAL2 [4]): 8720 µM
